This assay has as its target T1, glycogen synthase kinase 3β (GSK-3β) (Homo sapiens, UniProt P49841).
T1 construct: gene GSK3B; recombinant His-tagged GSK-3β
Put plainly: BLI on immobilized GSK-3β; also DARTS in lysate and Kinase-Glo inhibition (IC50 […]). The format is binding. For orientation: In Kinase-Glo more light means more ATP remaining.

What is called Kd is the equilibrium constant for the complex coming apart. The low end stands for a tighter complex, the high end for a looser complex.

SMILES strings stand for the structures.

T1 sequence (P49841 whole entry): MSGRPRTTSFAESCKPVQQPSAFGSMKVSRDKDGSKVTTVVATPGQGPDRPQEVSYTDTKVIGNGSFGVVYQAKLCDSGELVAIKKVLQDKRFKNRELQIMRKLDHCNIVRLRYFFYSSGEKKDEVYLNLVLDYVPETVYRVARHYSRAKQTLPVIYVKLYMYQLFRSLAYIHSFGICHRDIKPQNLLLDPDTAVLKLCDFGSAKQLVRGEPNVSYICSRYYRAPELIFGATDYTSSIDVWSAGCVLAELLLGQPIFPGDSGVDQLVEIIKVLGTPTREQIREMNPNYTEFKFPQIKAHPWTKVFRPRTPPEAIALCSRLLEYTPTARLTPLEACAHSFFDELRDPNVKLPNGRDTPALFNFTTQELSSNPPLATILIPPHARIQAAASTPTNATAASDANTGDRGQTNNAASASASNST

In the case of `Cc1c(O)c(C)c2c(c1O)C(=O)C[C@@H](c1ccc(O)cc1)O2` [farrerol], binding was put at a Kd of 634 µM.

Values taken from article PMC7007950, “Farrerol Directly Targets GSK-3β to Activate Nrf2-ARE Pathway and Protect EA.hy926 Cells against Oxidative Stress-Induced Injuries” (Oxidative Medicine and Cellular Longevity, 2020).
